“Also recorded” adds a separate entry of the source.
What was measured:
[1] = Multiple-dose (once weekly for 3 weeks) plasma pharmacokinetics of MK-8507 tablet; format: in vivo, human; conditions: for AUC(0-t) / concentration at 168 h / Cmax / Tmax / half-life: human, plasma, oral; for AUC(0-t): read-out: AUC0–168 (geometric mean [95% CI]); for concentration at 168 h: read-out: C168hr (geometric mean [95% CI]); for Cmax: read-out: Cmax (geometric mean [95% CI])
Procedure: MK-8507 in plasma was extracted by protein precipitation and analyzed by reversed-phase chromatographic separation coupled with tandem mass spectrometric detection by Merck & Co., Inc. (West Point, PA, USA). The liquid chromatography-tandem mass spectrometric (LC-MS/MS) system consisted of a Waters Acquity ultraperformance liquid chromatography system (Waters Corporation, Milford, MA, USA) employing a turbo ionspray interface in the negative ion mode. The lower limit of quantitation was 1.0 ng/mL (2.03 nM) with a linear calibration range from 1.0 to 1000 ng/mL. The mean intrarun accuracy was 94.8 to 113% (precision, ≤6.2% coefficient of variation [CV]), and the mean interrun accuracy was 94.4 to 103.0% (precision, ≤8.6% CV). […] The AUC0-168hr and […] group was not statistically significant at the 0.05 level and was therefore omitted from the final model. An overall slope was estimated across all groups.

[2] = Food effect assessment (100 mg suspension, high-fat meal vs fasted); format: in vivo, human
Procedure: Study 1 was a 4-period, alternating panel (A and B), rising single-dose trial. Participants in each panel were randomized to receive single rising doses of MK-8507 (n = 6 per panel) or placebo (n = 2 per panel) as an oral suspension. All study drugs were administered after an overnight fast, except in period 4. […] There was a minimum 20-day washout interval between doses within each panel and a 10-day interval between each dosing period. […] MK-8507 in plasma was extracted by protein precipitation and analyzed by reversed-phase chromatographic separation coupled with tandem mass spectrometric detection by Merck & Co., Inc. (West Point, PA, USA). The liquid chromatography-tandem mass spectrometric (LC-MS/MS) system consisted of a Waters Acquity ultraperformance liquid chromatography system (Waters Corporation, Milford, MA, USA) employing a turbo ionspray interface in the negative ion mode. The lower limit of quantitation was 1.0 ng/mL (2.03 nM) with a linear calibration range from 1.0 to 1000 ng/mL. The mean intrarun accuracy was 94.8 to 113% (precision, ≤6.2% coefficient of variation [CV]), and the mean interrun accuracy was 94.4 to 103.0% (precision, ≤8.6% CV). […] Statistical analyses were performed using SAS software version 9.3 (SAS Institute Inc., Cary, NC, USA). […] The least-squares geometric mean (GM) and corresponding 95% CIs obtained from the models were exponentiated to provide estimates for the population GMs and CIs on the original scales.

[3] = 100 mg tablet once weekly for 3 weeks, n=6
[4] = 200 mg tablet once weekly for 3 weeks, n=5/6
[5] = 400 mg tablet once weekly for 3 weeks, n=6
[6] = 100 mg, 100 mg tablet once weekly, wk 1, n=6
[7] = 100 mg, 100 mg tablet once weekly, wk 3, n=6
[8] = 200 mg, 200 mg tablet once weekly, wk 1, n=5/6
[9] = 200 mg, 200 mg tablet once weekly, wk 3, n=5
[10] = 400 mg, 400 mg tablet once weekly, wk 1, n=6
[11] = 400 mg, 400 mg tablet once weekly, wk 3, n=6
[12] = 100 mg suspension, compared with fasted administration

## N#Cc1cc(Cl)cc(Oc2c(C(F)(F)F)ncn(Cc3cc(C(F)(F)F)c(=O)[nH]n3)c2=O)c1 [MK-8507]
[1]; [3]
  GMR (accumulation ratio, wk 3/wk 1 [90% CI]) of AUC0–168: 1.18 (1.12–1.25)
  GMR (accumulation ratio, wk 3/wk 1 [90% CI]) of C168hr: 1.14 (0.87–1.50)
  GMR (accumulation ratio, wk 3/wk 1 [90% CI]) of Cmax: 1.12 (0.96–1.30)
[1]; [4]
  GMR (accumulation ratio, wk 3/wk 1 [90% CI]) of AUC0–168: 1.23 (1.16–1.31)
  GMR (accumulation ratio, wk 3/wk 1 [90% CI]) of C168hr: 1.22 (0.90–1.65)
  GMR (accumulation ratio, wk 3/wk 1 [90% CI]) of Cmax: 1.15 (0.98–1.36)
[1]; [5]
  GMR (accumulation ratio, wk 3/wk 1 [90% CI]) of AUC0–168: 1.23 (1.16–1.31)
  GMR (accumulation ratio, wk 3/wk 1 [90% CI]) of C168hr: 1.21 (0.92–1.59)
  GMR (accumulation ratio, wk 3/wk 1 [90% CI]) of Cmax: 1.06 (0.91–1.23)
[1]; QW over 3 weeks, 100-mg, 200-mg, 400-mg doses
  accumulation with multiple dosing: minimal accumulation; also recorded: modest accumulation
[1]; QW over 3 weeks, 100-mg, 200-mg, 400-mg doses, range
  accumulation GMR (day 36, day 22), C168hr: 1.14 to 1.22
[1]; [6]
  AUC(0-t): 157 µM·h
  concentration at 168 h: 320 nM
  Cmax: 2940 nM
[1]; 100 mg, 100 mg tablet once weekly, wk 1, n=6, read-out: Tmax (median [min, max])
  Tmax: 3 h
[1]; 100 mg, 100 mg tablet once weekly, wk 2, n=6
  concentration at 168 h: 390 nM
[1]; [7]
  AUC(0-t): 185 µM·h
  concentration at 168 h: 370 nM
  Cmax: 3290 nM
[1]; 100 mg, 100 mg tablet once weekly, wk 3, n=6, read-out: Apparent terminal t½ (geometric mean [%GVC]) (converted)
  half-life: 66.7 h
[1]; 100 mg, 100 mg tablet once weekly, wk 3, n=6, read-out: Tmax (median [min, max])
  Tmax: 3.03 h
[1]; [8]
  AUC(0-t): 285 µM·h
  concentration at 168 h: 590 nM
  Cmax: 4870 nM
[1]; 200 mg, 200 mg tablet once weekly, wk 1, n=5/6, read-out: Tmax (median [min, max])
  Tmax: 5 h
[1]; 200 mg, 200 mg tablet once weekly, wk 2, n=5
  concentration at 168 h: 700 nM
[1]; [9]
  AUC(0-t): 352 µM·h
  concentration at 168 h: 720 nM
  Cmax: 5610 nM
[1]; 200 mg, 200 mg tablet once weekly, wk 3, n=5, read-out: Apparent terminal t½ (geometric mean [%GVC]) (converted)
  half-life: 74.2 h
[1]; 200 mg, 200 mg tablet once weekly, wk 3, n=5, read-out: Tmax (median [min, max])
  Tmax: 4.01 h
[1]; [10]
  AUC(0-t): 563 µM·h
  concentration at 168 h: 1230 nM
  Cmax: 10800 nM
[1]; 400 mg, 400 mg tablet once weekly, wk 1, n=6, read-out: Tmax (median [min, max])
  Tmax: 4 h
[1]; 400 mg, 400 mg tablet once weekly, wk 2, n=6
  concentration at 168 h: 1110 nM
[1]; [11]
  AUC(0-t): 694 µM·h
  concentration at 168 h: 1490 nM
  Cmax: 11500 nM
[1]; 400 mg, 400 mg tablet once weekly, wk 3, n=6, read-out: Apparent terminal t½ (geometric mean [%GVC]) (converted)
  half-life: 73.1 h
[1]; 400 mg, 400 mg tablet once weekly, wk 3, n=6, read-out: Tmax (median [min, max])
  Tmax: 4 h
[1]; 400 mg, 100, 200, 400 mg tablet once weekly, range across doses, read-out: geometric mean apparent t1/2
  half-life: 67 to 74 h
[1]; 400 mg, 100, 200, 400 mg tablet once weekly, range across doses, read-out: median time of peak concentration postdose
  Tmax: 3 to 5 h
[2]; 100 mg suspension
  effect of a high-fat meal on MK-8507 pharmacokinetics: no clinically meaningful effect; also recorded: no meaningful effect on AUC0–∞ or C168hr
[2]; [12]
  change in C168hr by a high-fat meal: no change
  decrease of AUC0–∞ by a high-fat meal: ~9%
  decrease of Cmax by a high-fat meal: 35%
  delay of Tmax by a high-fat meal: ~8 h
[2]; human, single oral dose 100 mg (fed), suspension, following a high-fat meal, plasma, n=6, read-out: AUC0-∞ (geometric mean [95% CI])
  AUC(0-inf): 159 µM·h
[2]; human, single oral dose 100 mg (fed), suspension, following a high-fat meal, plasma, n=6, read-out: AUC0–168 (geometric mean [95% CI])
  AUC(0-t): 126 µM·h
[2]; human, single oral dose 100 mg (fed), suspension, following a high-fat meal, plasma, n=6, read-out: Apparent terminal t½ (geometric mean [%GVC]) (converted)
  half-life: 72.6 h
[2]; human, single oral dose 100 mg (fed), suspension, following a high-fat meal, plasma, n=6, read-out: C168hr (geometric mean [95% CI])
  concentration at 168 h: 310 nM
[2]; human, single oral dose 100 mg (fed), suspension, following a high-fat meal, plasma, n=6, read-out: Cmax (geometric mean [95% CI])
  Cmax: 1670 nM
[2]; human, single oral dose 100 mg (fed), suspension, following a high-fat meal, plasma, n=6, read-out: Tmax (median [min, max])
  Tmax: 10 h
[2]; single oral dose 100 mg suspension, high-fat meal vs overnight fast, n=6
  GMR fed/fasted, C168hr: 1.02
